Test results from patent US20250170101A1, “MONOACYLGLYCEROL LIPASE INHIBITORS AND USE THEREOF FOR THE TREATMENT AND MANAGEMENT OF PAIN AND RELATED CONDITIONS” (Psy Therapeutics, Inc., priority 2021, published 2025).
Blank lines part the entries; values can stand above or below the compound they belong to.

Assays:
[1] = Plasma and brain concentrations after single intraperitoneal administration, Examples 23 and 24; type: in vivo, male C57BL/6 mice; details: 0.5 h
Procedure: (§1) This experiment was performed to determine plasma pharmacokinetics and estimate 2-AG levels in male C57BL/6 mice brain following a single intraperitoneal administration of Compound-74 (Dose: 5, 15, 50 and 150 mg/kg). The experiment was repeated at 150 mg/kg on 3 separate test dates to obtain the data shown in FIG. 1A (plasma and brain concentration of Compound 74 30 minutes after IP injection), and on the first and third test dates to obtain the data shown in FIG. 1B (brain concentration of 2-AG30 minutes after IP injection of Compound 74). • Compound 74, Molecular Wt.: 405.46 (Freebase), % Purity: Considered 100%. • Formulation: DMSO • Dose: 5, 15, 50 and 150 mg/kg • Dose volume: 2 mL/kg • Feeding regimen: freely fed • Groups:
Study Design: A total of thirty male mice were used into the study and divided in to five groups with six mice in each group (n=6 mice/group/treatment design). Animals in Group 1 to Group 4 were administered intraperitoneally with Compound 74 solution formulation at 5, 15, 50 and 150 mg/kg dose, respectively. Animals in Group 5 were administered intraperitoneally with vehicle at 2 mL/kg dose. Blood and brain samples were collected at 0.5 h post dose. Mice were euthanized by cervical dislocation and brain samples were dissected rapidly and snap frozen in liquid nitrogen, weighed and homogenized in 2 mL of acetonitrile containing 2-AGd5. Blood samples were centrifuged at 4000 rpm for 10 minutes at 4° C. Plasma was harvested and separated in pre-labeled tubes. All samples were stored below −70° C. until bioanalysis.
Analysis: Brain samples were processed for 2-AG estimation. 2-AG levels were the detected values. Plasma concentrations were determined by fit for purpose LC-MS/MS method. LLOQ: 5.09 ng/mL (Plasma and brain)
This experiment was performed to determine plasma pharmacokinetics and estimate 2-AG levels in male C57BL/6 mice brain following a single intraperitoneal administration of Compound-473 (Dose: 20 mg/kg). • Compound 473, Molecular Wt.: 463.41 (Freebase), % Purity: >98%. • Formulation: DMSO • Dose: 20 mg/kg • Dose volume: 10 mL/kg • Feeding regimen: Food and water ad libitum • Groups:
Study Design: A total of twelve C57BL/6 male mice were used in this study. Six animals were administered intraperitoneally with solution formulation of PSY-05-00473-002 at 20 mg/kg dose. Six animals were administered vehicle (5% NMP, 5% Solutol HS15 and 90% Normal saline) intraperitoneally at 10 mL/kg dose volume. Blood samples (approximately 60 μL) were collected under light isoflurane anesthesia from a set of six mice at 0.5 h. Plasma was harvested by centrifugation of blood and stored at −70±10° C. until analysis. After blood collection, mice were euthanized by cervical dislocation and brain samples were dissected rapidly and snapped frozen in liquid nitrogen and stored at −80. To homogenize, removed brain samples from the freezer, were divided into two equal hemispheres and weighed while still in frozen condition, and begun homogenization/extraction procedure without allowing the brain samples to thaw. One part is used for PK estimation and the other part is used for 2-AG estimation.
Analysis: For PK estimation, brain samples were homogenized in 2 volumes of PBS of brain weight. Total homogenate volume was three times of the brain weight. For 2-AG estimation, the frozen brain samples were homogenized in 2 mL acetonitrile containing 2-AGd5 (8.88 nmoles) will be incubated overnight at −20° C. to precipitate proteins. Blood samples were centrifuged at 10000 rpm for 10 minutes at 4° C. All samples were stored below −70° C. until bioanalysis. Plasma and brain homogenate samples were quantified by fit-for-purpose LC-MS/MS method (LLOQ: 1.02 ng/mL for plasma and 2.03 ng/mL for brain).

[2] = test system: Post-Operative Pain (Brennan) mouse model; assay: Chronic treatment in Post-Operative Pain (Brennan) mouse model, Example 27; type: in vivo, Mus Musculus C57BL/6; details: IP
Source text: The aim of this experiment was to evaluate effect of the test compounds Compound 74 and JZL-184 in after Chronic treatment in a Post-Operative Pain (Brennan) mouse model. • Mouse model: Mus Musculus & C57BL/6, male, 6-8 weeks • End points: mechanical allodynia and body weight
(§2) • Animals was anaesthetized under Isoflorane anesthesia. • Using aseptic conditions, prepared the plantar aspect of left hind paw with a 10% povidone-iodine solution and place the paw through a hole in a sterile cloth drape. Made a 0.5-cm longitudinal incision through skin and fascia of the paw with a no. 11 scalpel blade, beginning 0.2 cm from the proximal edge of the heel and extending toward the digits. • Elevated the underlying muscle with small curved forceps and incised longitudinally with the scalpel blade, keeping the muscle origin and insertion intact. • After homeostasis with gentle pressure, apposed the skin with 5-0 slik sutures. Cover the wound site.

MAGL enzyme = molecular target: T1, MAGL enzyme (Homo sapiens, UniProt Q99685); assay: MAGL reversible inhibition assay (washout), Example 22; type: biochemical; parameters: % MAGL activity returning after washout: concentration or dose not given beside the values; details: for degree to which MAGL enzymatic activity returned following washout of test compounds: pre-washout compound concentration 1 μM; for % MAGL activity returning after washout: relative to control (no inhibitor before washout), immediately following 30 minute washout
T1 sequence (Q99685 1-303): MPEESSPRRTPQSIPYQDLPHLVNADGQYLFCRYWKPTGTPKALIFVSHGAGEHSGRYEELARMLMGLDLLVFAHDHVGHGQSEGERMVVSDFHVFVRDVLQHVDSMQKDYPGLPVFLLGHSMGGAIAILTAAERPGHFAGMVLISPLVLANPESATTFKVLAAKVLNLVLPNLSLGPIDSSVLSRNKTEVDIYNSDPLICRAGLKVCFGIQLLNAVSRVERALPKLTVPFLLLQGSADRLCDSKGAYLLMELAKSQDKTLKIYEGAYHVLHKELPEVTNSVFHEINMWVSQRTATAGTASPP
Procedure: The reversible mechanism of MAGL inhibition of a test compound of Formula (I) can be determined. Flag-tagged MAGL enzyme will be immobilized on anti-Flag beads. Immobilized enzyme will be incubated+/−inhibitor at a dose that produces complete inhibition. Colorimetric substrate (4-NPA) will be added and the reaction monitored on a plate reader for 30 minutes to verify complete inhibition. Immobilized enzyme will then be washed thoroughly to remove the inhibitor, and fresh substrate will be added. The reaction will be monitored for an additional 30 minutes; returning enzymatic activity will indicate reversibility of inhibition. […]
For some test compounds, % activity returning after washout may be less than 100%/if complete compound unbinding takes longer than 30 minutes.

2-AG levels in brain = assay: Estimation of 2-AG in mouse brain after single intraperitoneal administration, Examples 23 and 24; type: in vivo, male C57BL/6 mice; details: single IP
Procedure: as §1
Study Design: A total of thirty male mice were used into the study and divided in to five groups with six mice in each group (n=6 mice/group/treatment design). Animals in Group 1 to Group 4 were administered intraperitoneally with Compound 74 solution formulation at 5, 15, 50 and 150 mg/kg dose, respectively. Animals in Group 5 were administered intraperitoneally with vehicle at 2 mL/kg dose. Blood and brain samples were collected at 0.5 h post dose. […]
Analysis: Brain samples were processed for 2-AG estimation. 2-AG levels were the detected values. Plasma concentrations were determined by fit for purpose LC-MS/MS method. […]

[3] = test system: Acute Post-Operative Pain (Brennan) mice model; assay: Acute Post-Operative Pain (Brennan) mice model, Example 26; type: in vivo, Mus Musculus C57BL/6; details: IP; for mechanical allodynia (Threshold, g) vs Vehicle control: at 30, 60 & 90 min
Source text: The aim of this experiment was to evaluate effect of the test compounds Compound 74 and JZL-184 in Acute Post-Operative Pain (Brennan) mice model. • Mouse model: Mus Musculus & C57BL/6, male, 6-8 weeks • End points: mechanical allodynia and brain 2-AG (optional)
as §2

human recombinant FAAH = molecular target: T2, human recombinant FAAH (Homo sapiens, UniProt O00519); assay: FAAH counter screen (Cayman FAAH Inhibitor Screening Assay Kit), Example 21; type: biochemical
T2 construct: purchased Cayman kit Item No. 10005196; FAAH enzyme 700302
T2 sequence (O00519 1-579): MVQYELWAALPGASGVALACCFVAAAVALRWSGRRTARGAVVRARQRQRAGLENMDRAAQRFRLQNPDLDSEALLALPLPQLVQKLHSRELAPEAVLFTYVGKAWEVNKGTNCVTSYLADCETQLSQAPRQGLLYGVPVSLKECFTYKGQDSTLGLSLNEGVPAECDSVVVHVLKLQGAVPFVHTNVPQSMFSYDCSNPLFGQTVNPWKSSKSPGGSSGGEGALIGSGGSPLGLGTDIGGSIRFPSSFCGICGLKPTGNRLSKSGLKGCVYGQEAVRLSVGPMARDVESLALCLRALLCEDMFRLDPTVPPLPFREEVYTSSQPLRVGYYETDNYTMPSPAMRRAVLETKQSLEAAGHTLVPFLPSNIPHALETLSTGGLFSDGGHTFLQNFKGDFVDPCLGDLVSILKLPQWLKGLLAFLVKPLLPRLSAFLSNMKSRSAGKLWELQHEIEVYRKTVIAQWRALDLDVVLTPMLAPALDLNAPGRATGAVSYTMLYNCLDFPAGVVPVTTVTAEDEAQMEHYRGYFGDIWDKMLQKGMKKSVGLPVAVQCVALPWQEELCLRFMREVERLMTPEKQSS
Procedure: Comparative compound potency at FAAH can be obtained with the following assay.
MAGL inhibitor compounds were also counter-screened for FAAH inhibition potency using the following assay. Assessment of FAAH inhibition was performed using Fatty Acid Amide Hydrolase Inhibitor Screening Assay Kit (Cayman Item No. 10005196) following manufacture's instruction with some modifications. The kit utilizes human recombinant FAAH and the fluorescent substrate, AMC Arachidonoyl amide (AAMCA). 5 μL of assay buffer (125 mM Tris, pH 9.0, 1 mM EDTA, i.e. ethylenediaminetetraacetic acid) was added to a 384-well black plate (Corning, 3573). Test compounds and control inhibitor JZL-195 (Cayman Chemical, 13668) were tested in 10-concentration IC50 mode with 3-fold serial dilution at a starting concentration of 100 μM and 10 μM, respectively. 300 nL or 30 nL of test compounds were delivered into a 384-well black plate (Corning, 3573) using a Labcyte Echo, followed by addition of 15 μL of FAAH enzyme (Cayman, 700302) in assay buffer. After a 5-minute pre-incubation at room temperature, 10 μL of AAMCA was added in assay buffer to start the reaction. Final concentration of FAAH enzyme is not specified and AAMCA substrate was used at the 20 uM. After these dilutions, the final concentration of the test compounds ranged from 100 μM to 5.08 nM or 10 μM down to 0.508 nM. The reaction was allowed to progress for 60 minutes, while the plate was read on an Envision plate reader at an Ex/Em of 350/460 nm with readings every minute. The data was analyzed in Microsoft Excel, using the slope between 30 and 59 minutes. The average of the no-enzyme wells (background) was subtracted from the data. The background-subtracted slope data was converted to % activity using the average of wells with enzyme and DMSO vehicle. IC50 values were calculated using GraphPad software (Sigmoidal dose response, variable slope equation).
Compounds listed in Table D2 were tested in the FAAH Counterscreen of Example 21

[4] = Method A: starting concentration of 100 μM

Structure (SMILES): Cc1cc(C2CC3(C2)CN(C(=O)c2cc(O)ccc2F)C3)n(-c2ccccc2C)n1 [Compound 74, (2-fluoro-5-hydroxyphenyl)(6-(3-methyl-1-(o-tolyl)-1H-pyrazol-5-yl)-2-azaspiro[3.3]heptan-2-yl)methanone]
Brain Plama Ratio (Kp) range ([1]; IP 5 mg/kg): 0.51-0.68
Plasma concentration range ([1]; IP 5 mg/kg): 12 to 186 ng/mL
Brain Plama Ratio (Kp) range ([1]; IP 15 mg/kg): 0.16-0.44
Brain concentration range ([1]; IP 15 mg/kg): 25 to 67 ng/g
Plasma concentration range ([1]; IP 15 mg/kg): 70 to 414 ng/mL
Brain Plama Ratio (Kp) range ([1]; IP 50 mg/kg): 0.06-0.08
Plasma concentration range ([1]; IP 50 mg/kg): 447 to 14914 ng/mL
Brain Plama Ratio (Kp) range ([1]; IP 150 mg/kg): 0.07-0.20
Brain concentration range ([1]; IP 150 mg/kg): 2412 to 12111 ng/g
Plasma concentration range ([1]; IP 150 mg/kg): 34920 to 70256 ng/mL
mechanical allodynia (Threshold, g) vs Vehicle control ([2]; 50 mg/kg, QD×8 days): significant decrease in mechanical allodynia
mechanical allodynia (Threshold, g) vs Vehicle control ([2]; 50 & 150 mg/kg, single dose): significant decrease in mechanical allodynia
degree to which MAGL enzymatic activity returned following washout of test compounds (MAGL enzyme): 162
% MAGL activity returning after washout (MAGL enzyme): >50%
levels of 2-AG compared to baseline (vehicle treatment) (2-AG levels in brain; 5 and 15 mg/kg dose): elevated slightly
levels of 2-AG compared to baseline (vehicle treatment) (2-AG levels in brain; 50 and 150 mg/kg dose groups): significant increase
mechanical allodynia (Threshold, g) vs Vehicle control ([3]; 50 & 150 mg/kg): significant decrease in mechanical allodynia

IC50 (human recombinant FAAH; Method B: starting concentration of 10 μM): > 10000 nM
degree to which MAGL enzymatic activity returned following washout of test compounds (MAGL enzyme): 47
% MAGL activity returning after washout (MAGL enzyme): <50%
Structure (SMILES): O=C(c1cc(O)ccc1F)N1CC2(CC(n3cc(C4CC4)c(-c4ccccc4F)n3)C2)C1 [Compound 493]

Structure (SMILES): O=C(Oc1ccc([N+](=O)[O-])cc1)N1CCC(C(O)(c2ccc3c(c2)OCO3)c2ccc3c(c2)OCO3)CC1 [JZL-184, reference compound]
mechanical allodynia (Threshold, g) vs Vehicle control ([2]; 40 mg/kg, single dose): significant decrease in mechanical allodynia
degree to which MAGL enzymatic activity returned following washout of test compounds (MAGL enzyme): complete lack of return of MAGL enzymatic activity
% MAGL activity returning after washout (MAGL enzyme): <1%
mechanical allodynia (Threshold, g) vs Vehicle control ([3]; 40 mg/kg): significant decrease in mechanical allodynia
Clinical observation ([3]; 40 mg/kg, post IP administration): mild hypolocomotion

Structure (SMILES): O=C(Oc1ccc([N+](=O)[O-])cc1)N1CCN(Cc2cccc(Oc3ccccc3)c2)CC1 [reference compound]
IC50 (human recombinant FAAH; [4]): 459 nM

IC50 (human recombinant FAAH; [4]): 14 nM
Structure (SMILES): O=C(Nc1cccnc1)N1CCC(Cc2cccc(Oc3ccc(C(F)(F)F)cn3)c2)CC1 [reference compound]
